Measured values taken from the NIST ThermoML archive (doi:10.1016/j.jct.2017.11.012).

Conditions: for mass density: 101.33 kPa, Liquid, Buoyancy - hydrostatic balance with magnetic suspension - one sinker

CCCCCCCCn1cc[n+](C)c1.[Br-] [1-methyl-3-octylimidazolium bromide]
Conditions	mass density [kg/m3]
293.61 K	1173.83
298.22 K	1170.38
303.23 K	1166.69
307.98 K	1163.19
313.53 K	1159.21
318.39 K	1155.7
323.35 K	1151.66
328.26 K	1147.97
332.57 K	1145.04
338.39 K	1140.81
342.96 K	1137.99
347.82 K	1135.43
353.15 K	1131.58
358.97 K	1127.78
360.84 K	1126.32

surface tension liquid-gas [mN/m]
Conditions	Ring tensiometer	Wilhelmy Plate
303.23 K	32.9	32.52
307.93 K	–	32.34
307.95 K	32.68	–
313.51 K	32.49	32.16
318.36 K	–	31.99
318.37 K	32.28	–
323.33 K	–	31.75
323.34 K	32.03	–
328.25 K	–	31.56
328.26 K	31.79	–
332.59 K	31.67	–
332.6 K	–	31.43
338.4 K	31.5	–
338.44 K	–	31.17
343.06 K	30.97	–
343.07 K	–	30.89
347.49 K	30.57	–
347.69 K	–	30.73
352.5 K	–	30.58
352.52 K	30.66	–
357.51 K	30.27	–
357.64 K	–	30.33
360.82 K	30.43	–
360.88 K	–	30.24

CCC[n+]1ccn(C)c1.[Br-] [1-methyl-3-propylimidazolium bromide]
surface tension liquid-gas [mN/m]
Conditions	Ring tensiometer	Wilhelmy Plate
328.53 K	–	55.02
328.55 K	55.07	–
333.09 K	–	54.74
333.1 K	55.08	–
337.75 K	54.69	54.46
343.78 K	54.17	–
343.8 K	–	53.93
347.98 K	53.66	–
348.01 K	–	53.75
352.22 K	–	53.51
352.34 K	53.52	–
358.15 K	52.86	–
358.17 K	–	53.09
362.78 K	52.94	–
362.89 K	–	52.72

Conditions	mass density [kg/m3]
333.07 K	1332.55
337.73 K	1329.41
343.74 K	1325.39
347.91 K	1322.26
352.28 K	1318.84
358.1 K	1314.79
362.76 K	1310.9

Br.Cn1ccnc1 [1-methylimidazolium bromide]
surface tension liquid-gas [mN/m]
Conditions	Ring tensiometer	Wilhelmy Plate
323.07 K	67.99	68.35
328.84 K	67.68	67.81
332.74 K	–	67.37
332.76 K	67.45	–
337.93 K	67.14	–
338.02 K	–	66.81
344.29 K	66	–
344.42 K	–	66.16
347.21 K	65.6	–
347.25 K	–	65.85
353.02 K	64.6	–
353.08 K	–	65.23
358.29 K	64.85	–
358.33 K	–	64.67
364.65 K	64.42	–
364.75 K	–	63.96

Conditions	mass density [kg/m3]
328.83 K	1557.9
332.76 K	1554.36
337.92 K	1550.16
344.29 K	1544.92
347.1 K	1542.88
353.02 K	1538.47
358.15 K	1534.17
364.58 K	1530.63

CCCCCn1cc[n+](C)c1.[Br-] [1-pentyl-3-methylimidazolium bromide]
Conditions	mass density [kg/m3]
298.49 K	1262.83
303.3 K	1259.38
308.12 K	1256.49
313.27 K	1252.83
318.27 K	1249.49
323.3 K	1245.55
327.41 K	1242.66
333.16 K	1239.16
338.01 K	1236.12
343.01 K	1232.8
348.13 K	1229.53
353.01 K	1226.21
358.12 K	1222.61
362.97 K	1219.41

Conditions	surface tension liquid-gas [mN/m]
333.23 K, Ring tensiometer	41.96
333.26 K, Wilhelmy Plate	41.79
338.06 K, Ring tensiometer	41.95
338.08 K, Wilhelmy Plate	41.6
343.07 K, Ring tensiometer	41.84
343.09 K, Wilhelmy Plate	41.38
348.23 K, Ring tensiometer	41.59
348.26 K, Wilhelmy Plate	41.18
353.11 K, Ring tensiometer	41.45
353.13 K, Wilhelmy Plate	41
358.22 K, Ring tensiometer	41.24
358.24 K, Wilhelmy Plate	40.81
363.07 K, Ring tensiometer	41.04
363.12 K, Wilhelmy Plate	40.6

CCCCCCn1cc[n+](C)c1.[Br-] [3-hexyl-1-methyl-1H-imidazolium bromide]
surface tension liquid-gas [mN/m]
Conditions	Ring tensiometer	Wilhelmy Plate
288.65 K	40.83	–
293.93 K	40.58	–
298.48 K	40.31	–
303.39 K	40.14	–
303.45 K	–	39.75
308.08 K	39.96	–
308.14 K	–	39.56
313.4 K	39.68	–
313.41 K	–	39.34
318.16 K	39.45	39.12
323.29 K	–	38.8
323.34 K	39.07	–
328.24 K	–	38.58
328.26 K	38.83	–
333.84 K	38.51	–
333.86 K	–	38.26
338.01 K	38.31	–
338.05 K	–	38.08
343.05 K	38.09	–
343.07 K	–	37.86
348.61 K	37.8	–
348.66 K	–	37.51
352.53 K	37.43	–
352.73 K	–	37.37
358.19 K	37.28	–
358.21 K	–	37.02
360.12 K	37.19	–
360.23 K	–	36.96

Conditions	mass density [kg/m3]
288.7 K	1235.51
293.91 K	1231.69
298.52 K	1228.13
303.43 K	1224.72
308.13 K	1220.87
313.41 K	1216.98
318.19 K	1213.32
323.33 K	1209.5
328.2 K	1205.7
333.8 K	1201.57
338.04 K	1198.15
343.07 K	1195.21
348.64 K	1191.41
352.79 K	1188.62
358.28 K	1185.22
360.63 K	1183.34
